This note sets out measurements from patent publication US20210228523A1, “MODULATORS OF SESTRIN-GATOR2 INTERACTION AND USES THEREOF” (Navitor Pharmaceuticals, Inc., priority 2017, published 2021).

The experiment relates to layer V pyramidal neurons in PFC. As to the kind of experiment: Whole cell patch clamp recording of 5-HT- and Hcrt-induced EPSCs in brain slices after oral dosing. It counts as in vivo, rat. The settings on record: Example H, NV-5138 160 mg/kg oral single dose. As for the experimental part:
Study Design: Sixteen (16) male rats weighing between 175 and 200 g were randomized into 2 study groups (n=8), following a 5-day acclimation period. On study day 0, rats received a single dose of either NV vehicle (Veh, 0.5% methylcellulose/0.1% Tween-80) or NV-5138 (160 mg/kg), by oral gavage. On day 1, 24 hrs after dosing, rats were sacrificed, and brain slices were prepared and subjected to whole cell patch clamp recording of layer V pyramidal neurons in PFC.
Preparation of Test Articles: NV-5138 (Navitor, Lot #07) was prepared by dissolving in Veh (0.5% methylcellulose/0.1% Tween-80) at a concentration of 50 mg/mL. The dosing volume based on the weight of the animal (3.2 mL/kg) was administered by oral gavage to study animals. Test articles were prepared the day of dosing.
Brain Slice Preparation: Brain slices were prepared according to published procedures (Liu, R. J. et al., J. Neurosci. 22(21): 9453-9464 (2002)). Briefly, rats were anesthetized with chloral hydrate (400 mg/kg, i.p.), in adherence to protocols approved by the Yale Animal Care and Use Committee. After decapitation, the brains were removed rapidly and placed in ice-cold (4° C.) artificial cerebrospinal fluid (ACSF) in which sucrose (252 mM) was substituted for NaCl (sucrose-ACSF) to prevent cell swelling. A block of tissue containing PFC was dissected and coronal slices (400 μm) were cut in sucrose-ACSF with an oscillating-blade tissue sheer (Leica VT1000S). After placement of the slice in a submerged recording chamber, the bath temperature was raised to 32° C. Known concentrations of drugs dissolved in ACSF, applied through a stopcock arrangement at a fast flow rate (4 mL/min), reached the slice within 7-10 s. […] A recovery period of ˜1-2 h was allowed before commencement of recording.
Electrophysiology Recording. […] Series resistance, monitored throughout the experiment, was usually between 4 and 8 MΩ. […]

Regarding `CC(C)(C[C@H](N)C(=O)O)C(F)F` [NV-5138], the “amplitude of 5-HT- and Hcrt-induced EPSCs (cumulative probability distribution)” value (FIG. 31, 24 hrs) is on record as “on frequency but not amplitude”. Further, where the note is “24 hrs after dosing”, the “frequency of 5-HT-induced EPSCs relative to vehicle-treated rats” value was “significantly increased” and the “frequency of Hcrt-induced EPSCs relative to vehicle-treated rats” value was “significantly increased”.
